The values that follow come from patent publication US10975099B2, “Thiophene compounds for long-acting injectable compositions and related methods” (Alkermes Pharma Ireland Limited, priority 2018, dated 2021).

Where “and” joins values, the source holds several entries; their conditions need not be identical. Identical values can stand only once.

The nature of series [1]: Whole blood stability assay. It counts as in vitro ADME. The conditions noted are these: pooled fresh human whole blood, 37 degrees C., prodrug 50 nM; read-out: t1/2 at 37 degrees C. in human whole blood. The procedure: Naltrexone prodrug stability was assessed using freshly collected whole blood (within 24-hr collection) from pooled human (n=3) donors. The incubation mixtures were prepared by spiking the prodrugs into pre-warmed (37 degrees C.) fresh whole blood to a final concentration of 50 nM. After gentle mixing, aliquots of incubation mixtures were immediately transferred into four different 96-deep well plates. One plate was used for each time point. The plates were incubated at 37 degrees C. at a shaking speed of 100 rpm. At time points 15, 30, 60 and 120 minutes, the reaction was quenched by addition of a mixture of water and acetonitrile containing the internal standard (naltrexone-D3). Time point 0 minutes was prepared separately by spiking the prodrugs into a quenched whole blood to obtain a final concentration of 50 nM. All samples were vortexed at a low speed for 15 min and centrifuged at 3900 rpm for 15 min. Supernatants were transferred into 96-well plates for LC-MS/MS analysis to monitor the depletion of the prodrugs and the formation of naltrexone.
The amount of remaining prodrug and released naltrexone for each sample was quantitated against the calibration curves prepared with the whole blood. The human whole blood was purchased from BioreclamationIVT (Westbury, N.Y., USA). Naltrexone-D3 was purchased from Cerilliant® (Round Rock, Tex., USA). […] Where multiple runs have been completed, average values are reported.

A short description of series [2]: Pharmacokinetic evaluation of the release of naltrexone from Compound 4 in rats following a single intramuscular injection. The following applies: for plasma concentrations of parent Compound 4 and the resultant intermediate, in words: over 84 days after single IM dose of Compound 4, limit of quantitation 0.5 ng/mL. The format is in vivo, Sprague-Dawley rats. The procedure:
Five male Sprague-Dawley rats were allowed to acclimate to the test facility for at least 3 days prior to study start. For dose administration of Compound 4, the rats were lightly anesthetized with isofluorane, the hind leg shaved and dosed intramuscularly with the formulation using a 20 G needle. […] Serial whole blood samples were collected via sublingual route (˜150 μL) at 1, 7, and 24 hours post dose, and at 2, 4, 7, 10, 14, 21, 24, 28, 35, 42, 49, 56, 63, 70, 77, and 84 days post dose.
Blood samples were placed into K2EDTA blood collection tubes. After collection, blood samples were maintained chilled (on wet ice) and centrifuged (11,500 rpm for 2 minutes at 5 degrees C.) within 30 minutes to obtain plasma. Plasma was transferred into a single vial, 1.5 mL screw cap micro-centrifuge tube with inserts and stored at −80 degrees C. until analysis.
The formulation dosed was a crystalline suspension of Compound 4 (48.3 milligrams of Compound 4 dosed per animal), wherein the crystalline test article was characterized with a particle size distribution of Dv10=4.0 μm, Dv50=6.4 μm, and Dv90=9.6 μm (as measured via laser diffraction). The formulation was prepared the day before dosing. Details of the formulation dosed are described in Table D below.
Results of the above intramuscular rat study of Compound 4 are shown in Tables E and F. In particular, Table E reports the average blood plasma levels of naltrexone in rat (n=5) over 84 days following intramuscular administration.

As to `O=C(CCc1ccc(CCC(=O)Oc2ccc3c4c2O[C@H]2C(=O)CC[C@@]5(O)[C@@H](C3)N(CC3CC3)CC[C@]425)s1)Oc1ccc2c3c1O[C@H]1C(=O)CC[C@@]4(O)[C@@H](C2)N(CC2CC2)CC[C@]314` [Compound 1, bis((4R,4aS,7aR,12bS)-3-(cyclopropylmethyl)-4a-hydroxy-7-oxo-2,3,4,4a,5,6,7,7a-octahydro-1H-4,12-methanobenzofuro[3,2-e]isoquinolin-9-yl) 3,3′-(thiophene-2,5-diyl)dipropionate], the half-life at 50 nM in series [1] was found to be 7.2 min.

Turning to `O=C(Cc1cscc1CC(=O)Oc1ccc2c3c1O[C@H]1C(=O)CC[C@@]4(O)[C@@H](C2)N(CC2CC2)CC[C@]314)Oc1ccc2c3c1O[C@H]1C(=O)CC[C@@]4(O)[C@@H](C2)N(CC2CC2)CC[C@]314` [Compound 2, bis((4R,4aS,7aR,12bS)-3-(cyclopropylmethyl)-4a-hydroxy-7-oxo-2,3,4,4a,5,6,7,7a-octahydro-1H-4,12-methanobenzofuro[3,2-e]isoquinolin-9-yl) 2,2′-(thiophene-3,4-diyl)diacetate], in series [1], the half-life at 50 nM is less than 5 min.

With `O=C(Cc1sc(CC(=O)Oc2ccc3c4c2O[C@H]2C(=O)CC[C@@]5(O)[C@@H](C3)N(CC3CC3)CC[C@]425)c2ccccc12)Oc1ccc2c3c1O[C@H]1C(=O)CC[C@@]4(O)[C@@H](C2)N(CC2CC2)CC[C@]314` [Compound 3, bis((4R,4aS,7aR,12bS)-3-(cyclopropylmethyl)-4a-hydroxy-7-oxo-2,3,4,4a,5,6,7,7a-octahydro-1H-4,12-methanobenzofuro[3,2-e]isoquinolin-9-yl) 2,2′-(benzo[c]thiophene-1,3-diyl)diacetate], the half-life at 50 nM in series [1] stood at 41.2 min.

Take `O=C(Cc1ccc(CC(=O)Oc2ccc3c4c2O[C@H]2C(=O)CC[C@@]5(O)[C@@H](C3)N(CC3CC3)CC[C@]425)s1)Oc1ccc2c3c1O[C@H]1C(=O)CC[C@@]4(O)[C@@H](C2)N(CC2CC2)CC[C@]314` [Compound 4, bis((4R,4aS,7aR,12bS)-3-(cyclopropylmethyl)-4a-hydroxy-7-oxo-2,3,4,4a,5,6,7,7a-octahydro-1H-4,12-methanobenzofuro[3,2-e]isoquinolin-9-yl) 2,2′-(thiophene-2,5-diyl)diacetate]: the half-life at 50 nM in series [1] turned out to be 4.19 min. Also, in series [2] (male, Sprague-Dawley, rat, plasma, intramuscular, 48.3 mg per animal, rat plasma, individual animals Rat 1-5, day 1 after single IM dose of Compound 4, read-out: Compound 4 conc.), the concentration at 1 day is less than 0.5 ng/mL. The concentration at 49 day in series [2] (male, Sprague-Dawley, rat, plasma, intramuscular, 48.3 mg per animal, rat plasma, individual animals Rat 1-5, day 49 after single IM dose of Compound 4, read-out: Compound 4 conc.) is less than 0.5 ng/mL. In addition, in series [2] (male, Sprague-Dawley, rat, plasma, intramuscular, 48.3 mg per animal, rat plasma, individual animals Rat 1-5, day 56 after single IM dose of Compound 4, read-out: Compound 4 conc.), the concentration at 56 day was less than 0.5 ng/mL. Further, the concentration at 63 day in series [2] (male, Sprague-Dawley, rat, plasma, intramuscular, 48.3 mg per animal, rat plasma, individual animals Rat 1-5, day 63 after single IM dose of Compound 4, read-out: Compound 4 conc.) was less than 0.5 ng/mL. For the same molecule, the concentration at 70 day in series [2] (male, Sprague-Dawley, rat, plasma, intramuscular, 48.3 mg per animal, rat plasma, individual animals Rat 1-5, day 70 after single IM dose of Compound 4, read-out: Compound 4 conc.) was less than 0.5 ng/mL. In addition, the concentration at 77 day in series [2] (male, Sprague-Dawley, rat, plasma, intramuscular, 48.3 mg per animal, rat plasma, individual animals Rat 1-5, day 77 after single IM dose of Compound 4, read-out: Compound 4 conc.) is less than 0.5 ng/mL. Besides, the concentration at 84 day in series [2] (male, Sprague-Dawley, rat, plasma, intramuscular, 48.3 mg per animal, rat plasma, individual animals Rat 1-5, day 84 after single IM dose of Compound 4, read-out: Compound 4 conc.) was less than 0.5 ng/mL. Moreover, the concentration at 2 day in series [2] (male, Sprague-Dawley, rat, plasma, intramuscular, 48.3 mg/animal, rat plasma, individual animals Rat 1-5, day 2 after single IM dose of Compound 4, read-out: Compound 4 conc.) is less than 0.5 ng/mL. Moreover, the concentration at 4 day in series [2] (male, Sprague-Dawley, rat, plasma, intramuscular, 48.3 mg/animal, rat plasma, individual animals Rat 1-5, day 4 after single IM dose of Compound 4, read-out: Compound 4 conc.) is less than 0.5 ng/mL. Moreover, the concentration at 7 day in series [2] (male, Sprague-Dawley, rat, plasma, intramuscular, 48.3 mg/animal, rat plasma, individual animals Rat 1-5, day 7 after single IM dose of Compound 4, read-out: Compound 4 conc.) is less than 0.5 ng/mL. Further, the concentration at 10 day in series [2] (male, Sprague-Dawley, rat, plasma, intramuscular, 48.3 mg/animal, rat plasma, individual animals Rat 1-5, day 10 after single IM dose of Compound 4, read-out: Compound 4 conc.) was less than 0.5 ng/mL. Further, in series [2] (male, Sprague-Dawley, rat, plasma, intramuscular, 48.3 mg/animal, rat plasma, individual animals Rat 1-5, day 14 after single IM dose of Compound 4, read-out: Compound 4 conc.), the concentration at 14 day was less than 0.5 ng/mL. The concentration at 21 day in series [2] (male, Sprague-Dawley, rat, plasma, intramuscular, 48.3 mg/animal, rat plasma, individual animals Rat 1-5, day 21 after single IM dose of Compound 4, read-out: Compound 4 conc.) was less than 0.5 ng/mL. Moreover, the concentration at 24 day in series [2] (male, Sprague-Dawley, rat, plasma, intramuscular, 48.3 mg/animal, rat plasma, individual animals Rat 1-5, day 24 after single IM dose of Compound 4, read-out: Compound 4 conc.) was less than 0.5 ng/mL. The concentration at 28 day in series [2] (male, Sprague-Dawley, rat, plasma, intramuscular, 48.3 mg/animal, rat plasma, individual animals Rat 1-5, day 28 after single IM dose of Compound 4, read-out: Compound 4 conc.) is less than 0.5 ng/mL. For the same molecule, the concentration at 35 day in series [2] (male, Sprague-Dawley, rat, plasma, intramuscular, 48.3 mg/animal, rat plasma, individual animals Rat 1-5, day 35 after single IM dose of Compound 4, read-out: Compound 4 conc.) was less than 0.5 ng/mL. In series [2] (male, Sprague-Dawley, rat, plasma, intramuscular, 48.3 mg/animal, rat plasma, individual animals Rat 1-5, day 42 after single IM dose of Compound 4, read-out: Compound 4 conc.), the concentration at 42 day is less than 0.5 ng/mL. Moreover, the Naltrexone conc. entry in series [2] (rat plasma, average, day 84 after single IM dose of Compound 4 crystalline suspension (48.3 mg/animal)) is given as “BLQ* (BLQ (Below Limit of Quantitation) means <0.5 ng/mL)”. In addition, the “Compound 4 conc.” value is <0.5 ng/mL (4×) and 2.11 ng/mL in series [2] (rat plasma, individual animals Rat 1-5, day 0.04 (1 hr) after single IM dose of Compound 4); 1.22 ng/mL and <0.5 ng/mL (3×) and 1.05 ng/mL in series [2] (rat plasma, individual animals Rat 1-5, day 0.3 (7 hr) after single IM dose of Compound 4); <0.5 ng/mL (3×) and 0.501 ng/mL in series [2] (rat plasma, individual animals Rat 1-5, day 1 after single IM dose of Compound 4); less than 0.5 ng/mL in series [2] (rat plasma, individual animals Rat 1-5, day 2 after single IM dose of Compound 4); less than 0.5 ng/mL in series [2] (rat plasma, individual animals Rat 1-5, day 4 after single IM dose of Compound 4); less than 0.5 ng/mL in series [2] (rat plasma, individual animals Rat 1-5, day 7 after single IM dose of Compound 4). The “Compound 4 conc.” value in series [2] (rat plasma, individual animals Rat 1-5, day 10 after single IM dose of Compound 4) is less than 0.5 ng/mL; in series [2] (rat plasma, individual animals Rat 1-5, day 14 after single IM dose of Compound 4) it was less than 0.5 ng/mL; in series [2] (rat plasma, individual animals Rat 1-5, day 21 after single IM dose of Compound 4), less than 0.5 ng/mL; in series [2] (rat plasma, individual animals Rat 1-5, day 24 after single IM dose of Compound 4) it was less than 0.5 ng/mL; in series [2] (rat plasma, individual animals Rat 1-5, day 28 after single IM dose of Compound 4), less than 0.5 ng/mL; in series [2] (rat plasma, individual animals Rat 1-5, day 35 after single IM dose of Compound 4), less than 0.5 ng/mL. For the same molecule, the “Compound 4 conc.” value in series [2] (rat plasma, individual animals Rat 1-5, day 42 after single IM dose of Compound 4) is recorded as less than 0.5 ng/mL; in series [2] (rat plasma, individual animals Rat 1-5, day 49 after single IM dose of Compound 4) it was less than 0.5 ng/mL; in series [2] (rat plasma, individual animals Rat 1-5, day 56 after single IM dose of Compound 4), less than 0.5 ng/mL; in series [2] (rat plasma, individual animals Rat 1-5, day 63 after single IM dose of Compound 4) it was less than 0.5 ng/mL; in series [2] (rat plasma, individual animals Rat 1-5, day 70 after single IM dose of Compound 4), less than 0.5 ng/mL; in series [2] (rat plasma, individual animals Rat 1-5, day 77 after single IM dose of Compound 4) it was less than 0.5 ng/mL. Further, in series [2] (rat plasma, individual animals Rat 1-5, day 84 after single IM dose of Compound 4), the “Compound 4 conc.” value was less than 0.5 ng/mL. Moreover, the “plasma concentrations of parent Compound 4 and the resultant intermediate, in words” value in series [2] (rat) was “generally low to not measurable”.

`O=C(O)Cc1ccc(CC(=O)Oc2ccc3c4c2O[C@H]2C(=O)CC[C@@]5(O)[C@@H](C3)N(CC3CC3)CC[C@]425)s1` [Compound 4i, 2-(5-(2-(((4R,4aS,7aR,12bS)-3-(cyclopropylmethyl)-4a-hydroxy-7-oxo-2,3,4,4a,5,6,7,7a-octahydro-1H-4,12-methanobenzofuro[3,2-e]isoquinolin-9-yl)oxy)-2-oxoethyl)thiophen-2-yl)acetic acid]: in series [2] (rat), the “plasma concentrations of parent Compound 4 and the resultant intermediate, in words” value is recorded as “generally low to not measurable”.

Turning to `O=C(Oc1ccc2c3c1O[C@H]1C(=O)CC[C@@]4(O)[C@@H](C2)N(CC2CC2)CC[C@]314)c1ccc(C(=O)Oc2ccc3c4c2O[C@H]2C(=O)CC[C@@]5(O)[C@@H](C3)N(CC3CC3)CC[C@]425)cc1` [Reference Compound A, NTX-3-terephthaloyl-NTX, reference compound], the half-life at 50 nM in series [1] is 54.7 min.
